Laboratory results reported in ChEMBL document CHEMBL3885861, “Open TG-GATES”.

Species: Rattus norvegicus
Assay: Open TG-GATES - Regimen: Single
Assay type: toxicity, organism-based, Sprague-Dawley
Design: regimen Single, gender Male, age 6 weeks
Details: in vivo, iv, route intravenous injection; for LIVER: tissue Liver; for A/G / ALP / ALT / AST / BUN / CRE / Ca / Cl / DBIL / GLC / IP / K / LDH / Na / PL / RALB / TBIL / TC / TG / TP / gamma-GTP: tissue Plasma; for APTT / Bas / Eos / Fbg / Hb / Ht / Lym / MCH / MCHC / MCV / Mono / Neu / PT / Plat / RBC / Ret / WBC: tissue Blood; for KIDNEY_L / KIDNEY_R / KIDNEY_TOTAL: tissue Kidney
[1] = 2 mg/kg, 3 h, dose level Middle
[2] = 2 mg/kg, 6 h, dose level Middle
[3] = 2 mg/kg, 9 h, dose level Middle
[4] = 2 mg/kg, 24 h, dose level Middle

## C[C@@H]1[C@H](O)[C@@H](C)/C=C/C=C/C=C/C=C/C=C/C=C/C=C/[C@H](O[C@@H]2O[C@H](C)[C@@H](O)[C@H](N)[C@@H]2O)C[C@@H]2O[C@](O)(C[C@@H](O)C[C@@H](O)[C@H](O)CC[C@@H](O)C[C@@H](O)CC(=O)O[C@H]1C)C[C@H](O)[C@H]2C(=O)O [AMPHOTERICIN B]
1 mg/kg, 9 h, dose level Low
  LIVER: 8.4 g
  A/G: 0.8
  ALP: 1344.2 IU/L
  ALT: 33 IU/L
  AST: 85 IU/L
  BUN: 16.6 mg/dL
  CRE: 0.1 mg/dL
  Ca: 10.6 mg/dL
  Cl: 106.6 meq/L
  DBIL: 0.012 mg/dL
  GLC: 161.4 mg/dL
  IP: 10.2 mg/dL
  K: 3.8 meq/L
  LDH: 53.6 IU/L
  Na: 142.8 meq/L
  PL: 122.8 mg/dL
  RALB: 2.5 g/dL
  TBIL: 0.07 mg/dL
  TC: 75.8 mg/dL
  TG: 31.4 mg/dL
  TP: 5.6 g/dL
  gamma-GTP: 1.6 IU/L
1 mg/kg, 24 h, dose level Low
  TERMINAL_BW: 224.5 g
  APTT: 14.8 s
  Bas: 0%
  Eos: 1%
  Fbg: 286.6 mg/dL
  Hb: 13.3 g/dL
  Ht: 39.7%
  Lym: 79.8%
  MCH: 21.2 pg
  MCHC: 33.6%
  MCV: 63.1 fL
  Mono: 2.2%
  Neu: 16.6%
  PT: 12 s
  Plat: 135.9 x10_4/uL
  RBC: 628.6 x10_4/ul
  Ret: 7.1%
  WBC: 100.8 x10_2/uL
  KIDNEY_L: 1 g
  KIDNEY_R: 1 g
  KIDNEY_TOTAL: 1.9 g
  LIVER: 10.5 g
  A/G: 0.8
  ALP: 1710.6 IU/L
  ALT: 39.8 IU/L
  AST: 67.8 IU/L
  BUN: 17.2 mg/dL
  CRE: 0.2 mg/dL
  Ca: 11 mg/dL
  Cl: 105.6 meq/L
  DBIL: 0.02 mg/dL
  GLC: 161.8 mg/dL
  IP: 8.2 mg/dL
  K: 3.9 meq/L
  LDH: 50.4 IU/L
  Na: 144 meq/L
  PL: 143.8 mg/dL
  RALB: 2.7 g/dL
  TBIL: 0.056 mg/dL
  TC: 79.4 mg/dL
  TG: 92.2 mg/dL
  TP: 5.8 g/dL
  gamma-GTP: 1.8 IU/L
[1]
  TERMINAL_BW: 220.8 g
  APTT: 17.1 s
  Bas: 0%
  Eos: 1%
  Fbg: 283 mg/dL
  Hb: 13.7 g/dL
  Ht: 38.4%
  Lym: 69%
  MCH: 20.9 pg
  MCHC: 35.8%
  MCV: 58.4 fL
  Mono: 4%
  Neu: 25%
  PT: 12.6 s
  Plat: 117.6 x10_4/uL
  RBC: 657 x10_4/ul
  Ret: 6.8%
  WBC: 144 x10_2/uL
  KIDNEY_L: 1 g
  KIDNEY_R: 0.9 g
  KIDNEY_TOTAL: 1.9 g
  LIVER: 10.3 g
  A/G: 0.8
  ALP: 1456 IU/L
  ALT: 41 IU/L
  AST: 72 IU/L
  BUN: 31 mg/dL
  CRE: 0.2 mg/dL
  Ca: 11 mg/dL
  Cl: 106 meq/L
  DBIL: 0.01 mg/dL
  GLC: 186 mg/dL
  IP: 10.5 mg/dL
  K: 4.4 meq/L
  LDH: 71 IU/L
  Na: 141 meq/L
  PL: 134 mg/dL
  RALB: 2.5 g/dL
  TBIL: 0.07 mg/dL
  TC: 78 mg/dL
  TG: 41 mg/dL
  TP: 5.5 g/dL
  gamma-GTP: 2 IU/L
[2]
  TERMINAL_BW: 211.7 g
  APTT: 15.8 s
  Bas: 0.2%
  Eos: 0%
  Fbg: 236 mg/dL
  Hb: 14.3 g/dL
  Ht: 41.1%
  Lym: 54.8%
  MCH: 21.2 pg
  MCHC: 35%
  MCV: 60.7 fL
  Mono: 3.2%
  Neu: 40.8%
  PT: 12.8 s
  Plat: 138.8 x10_4/uL
  RBC: 676.8 x10_4/ul
  Ret: 8.1%
  WBC: 102.6 x10_2/uL
  KIDNEY_L: 1 g
  KIDNEY_R: 1 g
  KIDNEY_TOTAL: 2.1 g
  LIVER: 9.1 g
  A/G: 0.9
  ALP: 1566.8 IU/L
  ALT: 197 IU/L
  AST: 407 IU/L
  BUN: 43.8 mg/dL
  CRE: 0.4 mg/dL
  Ca: 11 mg/dL
  Cl: 107 meq/L
  DBIL: 0.0175 mg/dL
  GLC: 196.8 mg/dL
  IP: 11.3 mg/dL
  K: 5.5 meq/L
  LDH: 531 IU/L
  Na: 142.5 meq/L
  PL: 116.2 mg/dL
  RALB: 2.5 g/dL
  TBIL: 0.0675 mg/dL
  TC: 69 mg/dL
  TG: 41 mg/dL
  TP: 5.5 g/dL
  gamma-GTP: 3.2 IU/L
[3]
  TERMINAL_BW: 209.6 g
  APTT: 16.5 s
  Bas: 0%
  Eos: 0.2%
  Fbg: 288.2 mg/dL
  Hb: 13.5 g/dL
  Ht: 37.5%
  Lym: 59%
  MCH: 21.2 pg
  MCHC: 36%
  MCV: 59 fL
  Mono: 3.5%
  Neu: 35.8%
  PT: 12.8 s
  Plat: 147.9 x10_4/uL
  RBC: 634.8 x10_4/ul
  Ret: 7.8%
  WBC: 117.4 x10_2/uL
  KIDNEY_L: 1 g
  KIDNEY_R: 1 g
  KIDNEY_TOTAL: 2 g
  LIVER: 8.3 g
  A/G: 0.8
  ALP: 1444 IU/L
  ALT: 39.5 IU/L
  AST: 80.8 IU/L
  BUN: 29.8 mg/dL
  CRE: 0.2 mg/dL
  Ca: 10.8 mg/dL
  Cl: 109.2 meq/L
  DBIL: 0.0225 mg/dL
  GLC: 171.5 mg/dL
  IP: 10.7 mg/dL
  K: 3.8 meq/L
  LDH: 64.8 IU/L
  Na: 145 meq/L
  PL: 139.8 mg/dL
  RALB: 2.5 g/dL
  TBIL: 0.0875 mg/dL
  TC: 83.5 mg/dL
  TG: 22.8 mg/dL
  TP: 5.6 g/dL
  gamma-GTP: 1.5 IU/L
[4]
  TERMINAL_BW: 219.6 g
  APTT: 14.8 s
  Bas: 0%
  Eos: 1%
  Fbg: 363 mg/dL
  Hb: 13.6 g/dL
  Ht: 39.2%
  Lym: 74%
  MCH: 20.6 pg
  MCHC: 34.7%
  MCV: 59.2 fL
  Mono: 2.7%
  Neu: 21.7%
  PT: 12.3 s
  Plat: 150.1 x10_4/uL
  RBC: 663 x10_4/ul
  Ret: 6.5%
  WBC: 92.3 x10_2/uL
  KIDNEY_L: 1 g
  KIDNEY_R: 1 g
  KIDNEY_TOTAL: 2 g
  LIVER: 10.1 g
  A/G: 0.8
  ALP: 1322 IU/L
  ALT: 32.3 IU/L
  AST: 65 IU/L
  BUN: 22.7 mg/dL
  CRE: 0.2 mg/dL
  Ca: 11 mg/dL
  Cl: 106.7 meq/L
  DBIL: 0.0133 mg/dL
  GLC: 171.3 mg/dL
  IP: 7.6 mg/dL
  K: 4.3 meq/L
  LDH: 57.3 IU/L
  Na: 144 meq/L
  PL: 148.7 mg/dL
  RALB: 2.6 g/dL
  TBIL: 0.0567 mg/dL
  TC: 91.3 mg/dL
  TG: 64.7 mg/dL
  TP: 5.9 g/dL
  gamma-GTP: 1.3 IU/L
4 mg/kg, 24 h, dose level High
  TERMINAL_BW: 207 g
  APTT: 12.7 s
  Bas: 0%
  Eos: 1%
  Fbg: 536 mg/dL
  Hb: 14.3 g/dL
  Ht: 37.3%
  Lym: 55%
  MCH: 21.1 pg
  MCHC: 38.3%
  MCV: 55.1 fL
  Mono: 2%
  Neu: 42%
  PT: 11.1 s
  Plat: 105.2 x10_4/uL
  RBC: 676 x10_4/ul
  Ret: 6.3%
  WBC: 121.2 x10_2/uL
  KIDNEY_L: 1.2 g
  KIDNEY_R: 1.1 g
  KIDNEY_TOTAL: 2.4 g
  LIVER: 8.7 g
  A/G: 0.7
  ALP: 1402 IU/L
  ALT: 227 IU/L
  AST: 699 IU/L
  BUN: 53 mg/dL
  CRE: 0.3 mg/dL
  Ca: 11 mg/dL
  Cl: 108 meq/L
  DBIL: 0.03 mg/dL
  GLC: 160 mg/dL
  IP: 8 mg/dL
  K: 4.1 meq/L
  LDH: 117 IU/L
  Na: 146 meq/L
  PL: 111 mg/dL
  RALB: 2.5 g/dL
  TBIL: 0.1 mg/dL
  TC: 76 mg/dL
  TG: 13 mg/dL
  TP: 6.1 g/dL
  gamma-GTP: 2 IU/L
